Results taken from ChEMBL document CHEMBL1201862, “PubChem BioAssay data set” (2004).
Blank lines part the entries; values can stand above or below the compound they belong to. Activity calls are given as the source filed them.

Columns and labels:
[1] = target: T1, Voltage-gated N-type calcium channel alpha-1B subunit/Amyloid beta A4 precursor protein-binding family A member 1 (Homo sapiens, UniProt Q00975+Q02410); type: protein assay
[2] = target: T1, Voltage-gated N-type calcium channel alpha-1B subunit/Amyloid beta A4 precursor protein-binding family A member 1; type: protein assay; remark: listed apart in the source
[3] = target: T2, Small ubiquitin-related modifier 1 (Homo sapiens, UniProt P63165); test: SUMO1 protein-protein binding blockers, potency – biochemical, FRET, dose response (AID 624383); type: functional; details: read-out: IC50_Mean
[4] = target: T2, Small ubiquitin-related modifier 1; test: SUMO1 protein interaction blockers, potency – biochemical, fluorescence polarization, uHTS hits, dose response (AID 624382); type: functional; details: read-out: IC50_Mean
[5] = target: T3, Apoptotic protease-activating factor 1 (Homo sapiens, UniProt O14727); test: activation of Apaf-1 mediated apoptosis – fluorescent, uHTS hits, dose response (AID 588554); type: functional
T3 sequence (O14727 whole entry): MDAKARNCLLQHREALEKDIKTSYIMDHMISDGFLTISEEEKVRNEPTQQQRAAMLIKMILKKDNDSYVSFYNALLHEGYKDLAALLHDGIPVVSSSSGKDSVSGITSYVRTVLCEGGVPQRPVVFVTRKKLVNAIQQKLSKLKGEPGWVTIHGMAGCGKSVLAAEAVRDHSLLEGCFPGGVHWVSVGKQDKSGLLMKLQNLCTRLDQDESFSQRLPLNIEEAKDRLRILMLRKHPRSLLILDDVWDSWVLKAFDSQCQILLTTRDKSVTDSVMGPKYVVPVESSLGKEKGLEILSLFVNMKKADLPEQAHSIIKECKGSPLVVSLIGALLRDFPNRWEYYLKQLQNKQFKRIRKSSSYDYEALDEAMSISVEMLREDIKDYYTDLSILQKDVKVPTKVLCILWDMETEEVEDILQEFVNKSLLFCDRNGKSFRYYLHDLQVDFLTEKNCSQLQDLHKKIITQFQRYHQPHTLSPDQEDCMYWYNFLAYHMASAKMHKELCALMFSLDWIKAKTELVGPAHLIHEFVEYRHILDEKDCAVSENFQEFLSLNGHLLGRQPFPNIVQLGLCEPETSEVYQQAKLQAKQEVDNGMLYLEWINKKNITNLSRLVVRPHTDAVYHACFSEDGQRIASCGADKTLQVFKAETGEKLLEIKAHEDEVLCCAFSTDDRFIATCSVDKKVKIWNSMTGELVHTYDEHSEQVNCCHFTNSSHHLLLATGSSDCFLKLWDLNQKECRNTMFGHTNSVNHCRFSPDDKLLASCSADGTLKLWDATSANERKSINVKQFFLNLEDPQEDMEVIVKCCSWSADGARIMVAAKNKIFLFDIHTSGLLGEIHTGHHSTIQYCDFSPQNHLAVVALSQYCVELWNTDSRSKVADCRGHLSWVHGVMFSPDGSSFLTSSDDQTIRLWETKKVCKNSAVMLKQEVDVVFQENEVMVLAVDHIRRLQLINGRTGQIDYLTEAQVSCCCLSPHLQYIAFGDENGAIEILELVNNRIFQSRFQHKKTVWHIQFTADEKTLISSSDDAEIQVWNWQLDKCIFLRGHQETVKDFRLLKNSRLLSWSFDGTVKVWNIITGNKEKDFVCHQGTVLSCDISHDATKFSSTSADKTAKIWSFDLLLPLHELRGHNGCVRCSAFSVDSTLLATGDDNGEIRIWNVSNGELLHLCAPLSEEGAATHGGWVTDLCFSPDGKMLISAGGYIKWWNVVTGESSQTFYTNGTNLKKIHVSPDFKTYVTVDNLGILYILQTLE

Keap1/Nrf2 = Keap1/Nrf2 (Homo sapiens, UniProt Q14145); test: disruptors of Keap1 binding to Nrf2 peptide – biochemical, fluorescence polarization, cherry-picked samples, dose response (AID 588683)
ORF 73 = target: T4, ORF 73 (Human herpesvirus 8, UniProt O40947); test: KSHV LANA DNA-binding disruption – biochemical, fluorescence polarization, cherry-picked samples, dose response (AID 504725); parameters: species or system Human gammaherpesvirus 8;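 further: fluorescence polarization of a labeled DNA duplex reporting LANA DNA binding; potency is for inhibitors that block LANA binding to the DNA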
T4 sequence (O40947 whole entry): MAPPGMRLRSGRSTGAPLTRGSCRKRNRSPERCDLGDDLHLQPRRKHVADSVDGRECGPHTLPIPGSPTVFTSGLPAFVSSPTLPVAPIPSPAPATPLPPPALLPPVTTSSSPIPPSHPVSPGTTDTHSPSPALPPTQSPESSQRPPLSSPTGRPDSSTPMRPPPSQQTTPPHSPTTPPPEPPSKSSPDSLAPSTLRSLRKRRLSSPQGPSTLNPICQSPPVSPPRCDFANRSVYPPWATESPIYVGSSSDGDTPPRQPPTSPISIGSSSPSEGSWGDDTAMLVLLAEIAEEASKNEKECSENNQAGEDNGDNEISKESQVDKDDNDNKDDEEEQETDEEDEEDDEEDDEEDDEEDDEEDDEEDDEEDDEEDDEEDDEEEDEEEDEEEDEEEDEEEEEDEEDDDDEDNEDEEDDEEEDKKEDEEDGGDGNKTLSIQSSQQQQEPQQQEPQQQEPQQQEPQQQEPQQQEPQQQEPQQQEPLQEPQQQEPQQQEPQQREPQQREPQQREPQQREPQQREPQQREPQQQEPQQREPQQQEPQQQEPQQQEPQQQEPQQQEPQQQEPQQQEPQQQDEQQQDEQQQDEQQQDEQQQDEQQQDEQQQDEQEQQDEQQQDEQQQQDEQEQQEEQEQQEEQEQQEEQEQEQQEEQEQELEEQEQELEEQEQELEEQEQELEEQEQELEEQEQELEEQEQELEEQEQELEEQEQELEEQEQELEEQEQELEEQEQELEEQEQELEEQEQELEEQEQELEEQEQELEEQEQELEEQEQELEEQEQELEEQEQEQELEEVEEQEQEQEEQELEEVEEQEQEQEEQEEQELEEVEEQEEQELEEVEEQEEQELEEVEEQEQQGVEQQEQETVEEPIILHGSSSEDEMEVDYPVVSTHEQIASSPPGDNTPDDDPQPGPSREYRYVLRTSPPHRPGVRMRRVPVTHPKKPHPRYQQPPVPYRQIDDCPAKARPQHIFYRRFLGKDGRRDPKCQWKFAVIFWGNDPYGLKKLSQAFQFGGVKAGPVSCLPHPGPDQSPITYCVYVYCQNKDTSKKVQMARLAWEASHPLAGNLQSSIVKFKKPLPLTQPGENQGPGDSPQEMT

Cytochrome P450 2D6 = Cytochrome P450 2D6 (Homo sapiens, UniProt P10635);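 further: CYP2D6 member of a cytochrome P450 panel assay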
Cytochrome P450 1A2 = target: T5, Cytochrome P450 1A2 (Homo sapiens, UniProt P05177);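 further: PubChem cytochrome P450 panel assay, CYP1A2 panel member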
T5 sequence (P05177 whole entry): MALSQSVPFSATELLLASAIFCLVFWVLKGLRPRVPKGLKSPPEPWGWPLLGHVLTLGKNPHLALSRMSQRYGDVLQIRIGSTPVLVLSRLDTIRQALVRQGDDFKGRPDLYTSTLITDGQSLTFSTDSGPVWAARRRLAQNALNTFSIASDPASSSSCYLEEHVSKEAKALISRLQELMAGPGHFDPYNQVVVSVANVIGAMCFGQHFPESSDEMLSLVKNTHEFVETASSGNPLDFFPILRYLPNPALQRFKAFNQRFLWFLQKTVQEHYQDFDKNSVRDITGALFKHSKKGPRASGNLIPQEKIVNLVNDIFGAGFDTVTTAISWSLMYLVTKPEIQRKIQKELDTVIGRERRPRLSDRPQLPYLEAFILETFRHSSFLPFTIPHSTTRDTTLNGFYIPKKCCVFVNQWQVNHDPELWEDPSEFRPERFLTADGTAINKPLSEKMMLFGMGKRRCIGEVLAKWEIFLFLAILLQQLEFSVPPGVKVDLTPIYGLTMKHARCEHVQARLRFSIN

T1 sequence (Q00975 whole entry): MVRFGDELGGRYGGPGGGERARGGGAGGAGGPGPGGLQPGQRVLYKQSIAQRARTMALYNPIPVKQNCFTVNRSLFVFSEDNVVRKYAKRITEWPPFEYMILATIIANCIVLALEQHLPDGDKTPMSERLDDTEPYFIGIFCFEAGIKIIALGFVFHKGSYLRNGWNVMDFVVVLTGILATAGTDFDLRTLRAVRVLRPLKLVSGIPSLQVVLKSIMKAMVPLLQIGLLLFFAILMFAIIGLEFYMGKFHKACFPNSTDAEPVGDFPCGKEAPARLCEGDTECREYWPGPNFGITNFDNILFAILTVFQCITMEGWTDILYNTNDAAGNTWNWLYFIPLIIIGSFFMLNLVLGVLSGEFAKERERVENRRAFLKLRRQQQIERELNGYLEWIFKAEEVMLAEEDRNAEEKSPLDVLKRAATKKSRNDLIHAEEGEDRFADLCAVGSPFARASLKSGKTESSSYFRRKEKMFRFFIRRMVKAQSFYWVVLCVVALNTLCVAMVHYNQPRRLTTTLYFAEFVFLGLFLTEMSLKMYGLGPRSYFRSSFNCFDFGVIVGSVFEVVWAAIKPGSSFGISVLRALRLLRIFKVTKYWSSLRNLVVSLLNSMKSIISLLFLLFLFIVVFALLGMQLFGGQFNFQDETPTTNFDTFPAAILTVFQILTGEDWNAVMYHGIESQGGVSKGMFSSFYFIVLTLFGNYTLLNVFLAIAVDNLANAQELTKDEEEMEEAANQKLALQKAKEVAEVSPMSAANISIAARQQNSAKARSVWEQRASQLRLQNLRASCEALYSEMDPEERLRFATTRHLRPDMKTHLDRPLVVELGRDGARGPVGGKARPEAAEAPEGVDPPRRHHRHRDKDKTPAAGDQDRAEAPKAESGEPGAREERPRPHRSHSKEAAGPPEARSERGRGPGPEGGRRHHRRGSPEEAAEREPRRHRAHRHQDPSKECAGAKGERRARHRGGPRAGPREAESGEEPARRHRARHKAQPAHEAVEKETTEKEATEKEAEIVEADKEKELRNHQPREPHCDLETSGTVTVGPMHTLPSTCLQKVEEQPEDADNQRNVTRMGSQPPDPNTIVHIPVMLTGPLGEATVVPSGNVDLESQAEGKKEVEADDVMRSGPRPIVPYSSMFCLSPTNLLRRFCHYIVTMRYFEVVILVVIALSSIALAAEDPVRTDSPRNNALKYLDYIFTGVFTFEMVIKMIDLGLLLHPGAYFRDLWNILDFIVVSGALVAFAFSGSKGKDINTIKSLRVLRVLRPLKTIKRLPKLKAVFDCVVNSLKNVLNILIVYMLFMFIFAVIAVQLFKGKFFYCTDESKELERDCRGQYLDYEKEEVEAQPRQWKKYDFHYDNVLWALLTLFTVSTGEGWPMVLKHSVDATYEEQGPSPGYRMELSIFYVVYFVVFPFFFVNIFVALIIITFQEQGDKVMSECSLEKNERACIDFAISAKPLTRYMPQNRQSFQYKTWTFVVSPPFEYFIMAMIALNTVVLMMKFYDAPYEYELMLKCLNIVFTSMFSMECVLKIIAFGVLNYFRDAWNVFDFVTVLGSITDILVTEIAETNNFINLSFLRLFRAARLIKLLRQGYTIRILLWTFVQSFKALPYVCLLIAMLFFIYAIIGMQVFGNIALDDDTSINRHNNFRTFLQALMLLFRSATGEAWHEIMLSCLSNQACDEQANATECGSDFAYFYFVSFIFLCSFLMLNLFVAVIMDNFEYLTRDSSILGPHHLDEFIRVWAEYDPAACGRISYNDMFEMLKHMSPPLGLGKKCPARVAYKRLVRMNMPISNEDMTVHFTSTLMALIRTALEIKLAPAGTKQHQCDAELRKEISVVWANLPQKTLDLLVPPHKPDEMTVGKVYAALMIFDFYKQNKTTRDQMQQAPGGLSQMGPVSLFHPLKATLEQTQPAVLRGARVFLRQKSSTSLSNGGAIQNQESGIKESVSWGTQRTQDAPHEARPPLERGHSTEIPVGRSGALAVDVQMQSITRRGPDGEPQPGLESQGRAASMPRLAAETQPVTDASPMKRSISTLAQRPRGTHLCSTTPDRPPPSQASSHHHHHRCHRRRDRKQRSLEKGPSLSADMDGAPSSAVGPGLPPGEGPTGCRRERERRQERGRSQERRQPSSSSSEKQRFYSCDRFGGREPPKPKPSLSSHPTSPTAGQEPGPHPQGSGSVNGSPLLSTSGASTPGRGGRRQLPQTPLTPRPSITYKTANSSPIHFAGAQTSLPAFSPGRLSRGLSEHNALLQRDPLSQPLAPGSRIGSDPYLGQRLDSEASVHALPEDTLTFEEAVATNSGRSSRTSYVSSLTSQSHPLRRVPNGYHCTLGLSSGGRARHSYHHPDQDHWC
T1 sequence (Q02410 whole entry): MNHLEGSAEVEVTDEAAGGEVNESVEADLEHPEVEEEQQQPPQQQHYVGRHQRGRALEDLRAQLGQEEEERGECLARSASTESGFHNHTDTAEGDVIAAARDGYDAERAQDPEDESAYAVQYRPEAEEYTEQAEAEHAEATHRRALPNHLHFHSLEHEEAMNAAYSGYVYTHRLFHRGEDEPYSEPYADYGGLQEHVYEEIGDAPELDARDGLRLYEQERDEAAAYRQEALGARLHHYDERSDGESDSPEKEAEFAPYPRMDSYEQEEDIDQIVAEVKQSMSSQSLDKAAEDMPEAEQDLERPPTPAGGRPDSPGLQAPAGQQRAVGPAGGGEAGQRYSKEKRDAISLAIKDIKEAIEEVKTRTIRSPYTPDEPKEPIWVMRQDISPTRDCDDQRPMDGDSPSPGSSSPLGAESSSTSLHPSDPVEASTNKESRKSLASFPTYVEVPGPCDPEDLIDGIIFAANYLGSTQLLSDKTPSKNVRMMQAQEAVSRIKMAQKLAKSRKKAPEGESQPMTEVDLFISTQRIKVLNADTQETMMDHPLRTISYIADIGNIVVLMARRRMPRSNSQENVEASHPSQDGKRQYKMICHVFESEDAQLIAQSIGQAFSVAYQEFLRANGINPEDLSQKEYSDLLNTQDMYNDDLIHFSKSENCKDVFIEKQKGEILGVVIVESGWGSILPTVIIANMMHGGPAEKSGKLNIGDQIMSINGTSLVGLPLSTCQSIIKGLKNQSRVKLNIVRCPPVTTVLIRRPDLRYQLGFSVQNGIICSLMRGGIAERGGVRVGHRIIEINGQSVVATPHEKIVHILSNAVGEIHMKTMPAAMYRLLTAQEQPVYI
T2 sequence (P63165 whole entry): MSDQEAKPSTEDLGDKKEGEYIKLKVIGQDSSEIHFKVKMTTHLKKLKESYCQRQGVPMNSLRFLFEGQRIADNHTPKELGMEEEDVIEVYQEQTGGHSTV
Sequence of Cytochrome P450 2D6 (P10635 whole entry): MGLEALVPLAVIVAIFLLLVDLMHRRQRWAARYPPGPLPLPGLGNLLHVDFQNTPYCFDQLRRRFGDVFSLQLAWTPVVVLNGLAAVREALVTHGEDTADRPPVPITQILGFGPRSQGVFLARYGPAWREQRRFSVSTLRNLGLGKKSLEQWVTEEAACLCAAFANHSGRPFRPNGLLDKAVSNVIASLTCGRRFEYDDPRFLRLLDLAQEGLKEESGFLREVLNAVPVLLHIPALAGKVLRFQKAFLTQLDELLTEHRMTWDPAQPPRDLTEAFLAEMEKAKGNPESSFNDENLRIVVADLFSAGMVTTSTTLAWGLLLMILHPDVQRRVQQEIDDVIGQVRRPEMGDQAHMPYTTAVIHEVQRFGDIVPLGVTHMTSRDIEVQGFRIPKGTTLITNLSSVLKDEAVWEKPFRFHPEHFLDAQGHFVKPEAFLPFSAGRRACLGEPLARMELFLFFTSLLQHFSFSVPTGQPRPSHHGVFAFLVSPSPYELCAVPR
Sequence of Keap1/Nrf2 (Q16236 whole entry): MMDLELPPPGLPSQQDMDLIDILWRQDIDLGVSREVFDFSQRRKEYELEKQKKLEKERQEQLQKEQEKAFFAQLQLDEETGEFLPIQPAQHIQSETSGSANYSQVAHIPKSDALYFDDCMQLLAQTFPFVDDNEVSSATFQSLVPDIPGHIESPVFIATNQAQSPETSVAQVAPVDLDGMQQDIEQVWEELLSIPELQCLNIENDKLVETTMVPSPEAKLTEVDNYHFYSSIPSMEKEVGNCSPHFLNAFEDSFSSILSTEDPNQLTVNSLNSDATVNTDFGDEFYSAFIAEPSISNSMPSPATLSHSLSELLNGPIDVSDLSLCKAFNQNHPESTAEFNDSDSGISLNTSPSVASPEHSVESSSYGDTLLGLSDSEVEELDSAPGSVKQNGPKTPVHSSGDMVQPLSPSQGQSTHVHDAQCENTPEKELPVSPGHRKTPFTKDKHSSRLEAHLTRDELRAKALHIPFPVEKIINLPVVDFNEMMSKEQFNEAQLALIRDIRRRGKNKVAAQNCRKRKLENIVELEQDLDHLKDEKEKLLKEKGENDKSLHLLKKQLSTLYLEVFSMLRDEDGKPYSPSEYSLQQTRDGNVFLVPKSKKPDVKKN
Sequence of Keap1/Nrf2 (Q14145 whole entry): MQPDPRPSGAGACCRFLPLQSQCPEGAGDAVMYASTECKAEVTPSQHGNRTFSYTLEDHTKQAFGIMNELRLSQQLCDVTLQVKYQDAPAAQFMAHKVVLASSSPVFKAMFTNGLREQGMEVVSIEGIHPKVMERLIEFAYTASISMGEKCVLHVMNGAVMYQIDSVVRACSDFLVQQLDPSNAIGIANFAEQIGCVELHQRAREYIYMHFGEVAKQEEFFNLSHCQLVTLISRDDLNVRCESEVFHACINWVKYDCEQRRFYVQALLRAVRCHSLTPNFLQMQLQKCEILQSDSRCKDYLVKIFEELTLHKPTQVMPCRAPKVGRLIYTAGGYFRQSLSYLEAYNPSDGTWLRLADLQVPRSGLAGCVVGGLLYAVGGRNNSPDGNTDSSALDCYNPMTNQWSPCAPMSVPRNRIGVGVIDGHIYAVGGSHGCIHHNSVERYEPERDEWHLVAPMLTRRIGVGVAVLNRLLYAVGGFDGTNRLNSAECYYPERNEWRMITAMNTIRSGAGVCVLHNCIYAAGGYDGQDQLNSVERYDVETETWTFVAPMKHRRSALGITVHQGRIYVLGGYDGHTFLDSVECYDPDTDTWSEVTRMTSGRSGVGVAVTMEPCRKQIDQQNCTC

Compound: N#Cc1nc(-c2ccc(OCc3ccc(Cl)cc3)cc2)oc1N1CCC(C(N)=O)CC1
IC50 [1]: 3.78 µM (active)
IC50 [2]: 47.3 µM (active)
IC50 [3]: 8.79 µM (active)
IC50 [4]: > 66.6 µM (inactive)
EC50 [5]: 7.04 µM (active)

AC50 (Keap1/Nrf2): 24 µM (active)
AC50 (ORF 73): 10.8 µM (active)
Compound: Fc1ccc(C2=CC(c3ccc(Br)o3)n3ncnc3N2)cc1 (centres undefined)

Compound: Cn1c(=O)c2nc(SCc3ccccn3)[nH]c2n(C)c1=S
AC50 (Cytochrome P450 2D6): inconclusive
AC50 (Cytochrome P450 1A2): 0.0126 µM (inconclusive)
